The results in this text go back to patent US20250320228A1, “PYRIDO[3,2-D]PYRIMIDINES AS HPK1 INHIBITORS” (Merck Patent GmbH, priority 2022, published 2025).

Assay [1] has as its target full-length human HPK1 (MAP4K1) (Homo sapiens (Human), UniProt Q92918). The assay is described as follows: HPK1 kinase assay (biochemical, ADP-Glo). To be noted: GST-HPK1 3.2 nM, 10 μM ATP, MBP substrate, ADP-Glo; read-out: HPK1 enzymatic IC50. From the text:
HPK1 kinase assay (Biochemical assay).
A recombinant fusion protein consisting of full-length human HPK1 (MAP4K1) with an N-terminal Glutatione S-transferase (GST) tag was produced in insect cells Sf21 using the baculovirus expression system. GST-HPK1 protein was purified from cell lysates by glutathione Sepharose affinity chromatography. The assay is run in three continuous steps: 1) the HPK1 enzymatic kinase reaction, 2) an ATP depletion, and 3) the ADP detection, the steps 2 and 3 are performed with ADP-Glo™ Kinase Assay kit from Promega (V9101). Test compounds were prepared by 10-point serial dilution in dimethyl sulfoxide (DMSO) and 100 nL of each dilution was spotted onto a 384-well Optiplate (Perkin Elmer and Cat #6007299) by Labcyte Echo. 5 μL kinase reaction buffer (0.02% Brij-35, 2 mM DTT, 50 mM HEPES pH 7.5, MgCl2 10 mM, BSA 0.01% and β-glycerophosphate 12.5 mM) containing HPK1 (3.2 nM) enzyme was transferred to each well and incubated for 15 minutes at room temperature at 60% humidity. The enzymatic reaction was started by adding 5 μl of Start-Mix (10 μM ATP and 3.235 μM MBP). After 120 minutes, the reaction was stopped by adding 5 μL of ADP-Glo reagent (Promega, V9101) and incubating for 40 min. in the dark at 23° C. To determine the level of ADP, 10 μl ADP-Glo Detection solution was added and incubated for 1 hour at 23° C. in the dark. The plate was transferred to a Perkin Elmer EnVision (2104 Multilabel Reader) for luminescence detection and percent inhibition activity and IC50 value were determined using Genedata Screener.
On the technique in general: In ADP-Glo the light output rises with the ADP produced.

In another assay the test system is HPK1 pSLP76 (Ser376). The assay is described as follows: Cellular assay phospho-SLP-76 (Ser376). It is filed as cell-based, human. To be noted: SLP76 Ser376 phosphorylation after αCD3/αCD28 stimulation; Jurkat (human) or EL-4 (mouse) cells, table does not say which; read-out: HPK1 pSLP76 IC50. As for the experimental part: Cellular Assay—Phospho-SLP-76 (Ser376).
Inhibition of HPK1 enzymatic activity in cells was determined by detection of SLP76 phosphorylation at Ser376 residue in lysate from Jurkat (human) and EL-4 (mouse) cells. Jurkat and EL-4 cells express both HPK1 and SLP76 naturally. All cells were cultured in RPMI 1640 media containing 10% heat inactivated fetal bovine serum (FBS) and 1× Penicillin-Streptomycin. In either Jurkat or El-4 assay, cells were pre-incubated with test compounds prior to T cell stimulation by respective αCD3/αCD28 Dynabeads™. For detection, plates were read on the Envision and percent inhibition and IC50 were determined by Smart fit in Genedata Analyzer.
For Jurkat cells: 35 μL cell suspension were dispensed at a density of 30,000 cells/well in 384-well plates containing HBSS (Gibco, 14025076)+0.1% BSA). 10-point logarithmic serial dilution of test compounds in DMSO were prepared by a Hamilton automated liquid handling robot and 35 nL was transferred into each well by an Echo liquid handler. After 60 min. pre-incubation, the cells were stimulated by adding 5 μL human T activator αCD3/αCD28 Dynabeads™ (Gibco, 11132D) at 1.2×107 beads/ml for 15 minutes at 37° C. Detection of Ser376 phosphorylation status was accomplished by first adding 10 μL of 5× AlphaLISA lysis buffer (Perkin Elmer, ALSU-PSLP-A500) to each well of the cell plate using a Multidrop Combi (5840300), followed by 20 minutes shaking. 10 μL cell lysate from each treatment were then transferred to a white 384-well plate (Corning 3572) and incubated with AlphaLISA acceptor beads for one hour (AlphaLISA SureFire Ultra p-SLP76 (Ser376), Perkin Elmer, ALSU-PSLP-A500), and donor beads for additional 2 hours at room temperature in the dark. […]

Structures are written as SMILES.

Sequence of full-length human HPK1 (MAP4K1) (Q92918 whole entry): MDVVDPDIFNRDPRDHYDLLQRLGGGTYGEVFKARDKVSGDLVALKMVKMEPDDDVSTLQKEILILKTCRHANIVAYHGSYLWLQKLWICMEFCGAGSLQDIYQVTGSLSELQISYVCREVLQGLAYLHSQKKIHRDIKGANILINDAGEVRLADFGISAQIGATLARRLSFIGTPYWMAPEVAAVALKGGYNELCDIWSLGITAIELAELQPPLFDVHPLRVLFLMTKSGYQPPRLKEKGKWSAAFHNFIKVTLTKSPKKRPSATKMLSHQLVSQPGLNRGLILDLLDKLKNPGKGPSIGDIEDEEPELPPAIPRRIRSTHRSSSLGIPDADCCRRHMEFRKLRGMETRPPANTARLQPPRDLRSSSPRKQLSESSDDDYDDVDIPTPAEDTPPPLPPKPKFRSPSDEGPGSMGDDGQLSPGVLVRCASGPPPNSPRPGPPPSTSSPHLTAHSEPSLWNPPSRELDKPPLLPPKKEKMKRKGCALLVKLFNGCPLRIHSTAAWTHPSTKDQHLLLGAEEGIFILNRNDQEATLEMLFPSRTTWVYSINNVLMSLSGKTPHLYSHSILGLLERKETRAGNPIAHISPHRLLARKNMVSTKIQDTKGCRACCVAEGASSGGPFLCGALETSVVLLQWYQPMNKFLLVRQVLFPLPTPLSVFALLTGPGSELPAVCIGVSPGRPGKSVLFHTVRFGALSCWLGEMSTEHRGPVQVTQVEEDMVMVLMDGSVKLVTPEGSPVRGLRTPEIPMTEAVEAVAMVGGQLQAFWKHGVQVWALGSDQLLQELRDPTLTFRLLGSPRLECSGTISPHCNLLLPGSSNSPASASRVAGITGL

A word on the IC50: it is the concentration that gives 50% inhibition. As for `NC(=O)c1cc(-c2ccc(CN3C4COCC3COC4)cc2)nc2c(N[C@H]3CCCNC3)ncnc12` [Example 64, 6-(4-[3,7-dioxa-9-azabicyclo [3.3.1]nonan-9-ylmethyl]phenyl)-4-[(3S)-piperidin-3-ylamino]pyrido[3,2-d]pyrimidine-8-carboxamide], the IC50 in assay [1] is < 100 nM; in the assay with HPK1 pSLP76 (Ser376), < 500 nM.
For the compound `NC(=O)c1cc(C=C2CCOCC2)nc2c(N[C@H]3CCCNC3)ncnc12` [Example 85, 6-[(oxan-4-ylidene)methyl]-4-{[(3S)-piperidin-3-yl]amino}pyrido[3,2-d]pyrimidine-8-carboxamide], the 50% inhibitory concentration (IC50) in assay [1] is > 1000 nM.
For the compound `COc1ccc(-c2cc(C(N)=O)c3ncnc(N[C@@H]4CNCC(F)(F)C4)c3n2)cc1` [Example 11, (S)-4-((5,5-difluoropiperidin-3-yl)amino)-6-(4-methoxyphenyl)pyrido[3,2-d]pyrimidine-8-carboxamide], in assay [1], the IC50 fell in the range of 100 to 1000 nM.
With `CC1(F)CN(Cc2ccc(-c3cc(C(N)=O)c4ncnc(N[C@H]5CCCNC5)c4n3)cc2)C1` [Example 56, (S)-6-(4-((3-fluoro-3-methylazetidin-1-yl)methyl)phenyl)-4-(piperidin-3-ylamino)pyrido[3,2-d]pyrimidine-8-carboxamide], the IC50 in assay [1] was < 100 nM; in the assay on HPK1 pSLP76 (Ser376), < 500 nM.
Consider `NC(=O)c1cc(C2=CCC(N3CCOCC3)CC2)nc2c(N[C@H]3CCCNC3)ncnc12` (stereo partly drawn) [Example 17, 6-(4-morpholinocyclohex-1-en-1-yl)-4-(((S)-piperidin-3-yl)amino)pyrido[3,2-d]pyrimidine-8-carboxamide], for which the half-maximal inhibitory concentration (IC50) in assay [1] is < 100 nM; in the assay with HPK1 pSLP76 (Ser376) it was 500 to 1000 nM.
For `NC(=O)c1cc(-c2cnn(C(F)F)c2)nc2c(N[C@H]3CCCNC3)ncnc12` [Example 77, 6-[1-(difluoromethyl)-1H-pyrazol-4-yl]-4-{[(3S)-piperidin-3-yl]amino}pyrido[3,2-d]pyrimidine-8-carboxamide], the IC50 in assay [1] is < 100 nM.
As for `CC(C)(O)COc1ccc(-c2cc(C(N)=O)c3ncnc(N[C@@H]4CNCC[C@H]4F)c3n2)cc1` [Example 42, 4-(((3R,4R)-4-fluoropiperidin-3-yl)amino)-6-(4-(2-hydroxy-2-methylpropoxy)phenyl)pyrido[3,2-d]pyrimidine-8-carboxamide], the 50% inhibitory concentration (IC50) in assay [1] is < 100 nM; in the assay on HPK1 pSLP76 (Ser376) it was < 500 nM.
With `NC(=O)c1cc(-c2ccc(CN3C4COCC3C4)cc2)nc2c(N[C@H]3CCCNC3)ncnc12` [Example 67, 6-(4-[3-oxa-6-azabicyclo [3.1.1]heptan-6-ylmethyl]phenyl)-4-[(3S)-piperidin-3-ylamino]pyrido[3,2-d]pyrimidine-8-carboxamide], the half-maximal inhibitory concentration (IC50) in assay [1] is < 100 nM; in the assay on HPK1 pSLP76 (Ser376) it was > 1000 nM.
In the case of `N#C[C@H]1COCCN1Cc1ccc(-c2cc(C(N)=O)c3ncnc(N[C@H]4CCCNC4)c3n2)cc1` [Example 14], in the assay with HPK1 pSLP76 (Ser376), the concentration for half-maximal inhibition (IC50) is > 1000 nM.
As for `COCCn1cc(-c2cc(C(N)=O)c3ncnc(N[C@H]4CCCNC4)c3n2)cn1` [Example 19, (S)-6-(1-(2-methoxyethyl)-1H-pyrazol-4-yl)-4-(piperidin-3-ylamino)pyrido[3,2-d]pyrimidine-8-carboxamide], the IC50 in assay [1] is < 100 nM.
Take `NC(=O)c1cc(-c2ccc(CN3CC[C@H](F)C3)cc2)nc2c(N[C@H]3CCCNC3)ncnc12` [Example 60, 6-(4-[[(3S)-3-fluoropyrrolidin-1-yl]methyl]phenyl)-4-[(3S)-piperidin-3-ylamino]pyrido[3,2-d]pyrimidine-8-carboxamide]: the concentration for half-maximal inhibition (IC50) in assay [1] is < 100 nM.
For `NC(=O)c1cc(-c2cc(F)c(OCC3(O)CCC3)c(F)c2)nc2c(N[C@H]3CCCNC3)ncnc12` [Example 39, (S)-6-(3,5-difluoro-4-((1-hydroxycyclobutyl)methoxy)phenyl)-4-(piperidin-3-ylamino)pyrido[3,2-d]pyrimidine-8-carboxamide], in the assay on HPK1 pSLP76 (Ser376), the IC50 is < 500 nM.
As for `NC(=O)c1cc(-c2cccnc2C(F)(F)F)nc2c(N[C@H]3CCCNC3)ncnc12` [Example 87, 4-{[(3S)-piperidin-3-yl]amino}-6-[2-(trifluoromethyl)pyridin-3-yl]pyrido[3,2-d]pyrimidine-8-carboxamide], in assay [1], the IC50 was 100 to 1000 nM.
`NC(=O)c1cc(-c2ccc(CN3CCOCC3)cc2)nc2c(N[C@H]3CCCCNC3)ncnc12` [Example 21]: the IC50 in assay [1] lay in the range of 100 to 1000 nM.
`NC(=O)c1cc(C=C2CCOC2)nc2c(N[C@H]3CCCNC3)ncnc12` (stereo in doubt) [Example 80, 6-{[(3Z)-oxolan-3-ylidene]methyl}-4-{[(3S)-piperidin-3-yl]amino}pyrido[3,2-d]pyrimidine-8-carboxamide]: in assay [1], the IC50 lay in the range of 100 to 1000 nM.
The same measure, in the same setting: the figure for `NC(=O)c1cc(CC2CCOCC2)nc2c(N[C@H]3CCCNC3)ncnc12` [Example 88, 6-[(oxan-4-yl)methyl]-4-{[(3S)-piperidin-3-yl]amino}pyrido[3,2-d]pyrimidine-8-carboxamide] is > 1000 nM; for `CN1CC=C(c2cc(C(N)=O)c3ncnc(N[C@H]4CCCNC4)c3n2)CC1` [Example 73, 6-(1-methyl-1,2,3,6-tetrahydropyridin-4-yl)-4-{[(3S)-piperidin-3-yl]amino}pyrido[3,2-d]pyrimidine-8-carboxamide] it is > 1000 nM.
Consider `CC(C)n1cc(-c2cc(C(N)=O)c3ncnc(N[C@H]4CCCNC4)c3n2)cn1` [Example 78, 4-{[(3S)-piperidin-3-yl]amino}-6-[1-(propan-2-yl)-1H-pyrazol-4-yl]pyrido[3,2-d]pyrimidine-8-carboxamide], for which the IC50 in assay [1] is < 100 nM.
With `N#Cc1cc(C(F)F)ccc1-c1cc(C(N)=O)c2ncnc(N[C@@H]3CNCC(F)(F)C3)c2n1` [Example 10, (S)-6-(2-cyano-4-(difluoromethyl)phenyl)-4-((5,5-difluoropiperidin-3-yl)amino)pyrido[3,2-d]pyrimidine-8-carboxamide], in assay [1], the IC50 lay in the range of 100 to 1000 nM.
On the same count and under the same terms, the same measure for `NC(=O)c1cc(CC2CCOC2)nc2c(N[C@H]3CCCNC3)ncnc12` (stereo partly drawn) [Example 84, 6-[(oxolan-3-yl)methyl]-4-{[(3S)-piperidin-3-yl]amino}pyrido[3,2-d]pyrimidine-8-carboxamide]: > 1000 nM.
Regarding `NC(=O)c1cc(-c2ccc(CN3CCOCC3)cc2)nc2c(NC34CNCC3C4)ncnc12` (stereo not shown) [Example 20], the IC50 in the assay on HPK1 pSLP76 (Ser376) was > 1000 nM.
Consider `NC(=O)c1cc(-c2ccc(CN3CCOC[C@H]3C(F)(F)F)cc2)nc2c(N[C@H]3CCCNC3)ncnc12` [Example 15], for which the IC50 in the assay on HPK1 pSLP76 (Ser376) is < 500 nM.
In the case of `N#Cc1c(-c2cc(C(N)=O)c3ncnc(N[C@@H]4CNC[C@@H](F)C4)c3n2)ccc2ncccc12` [Example 2, 6-(5-cyanoquinolin-6-yl)-4-{[(3S,5S)-5-fluoropiperidin-3-yl]amino}pyrido[3,2-d]pyrimidine-8-carboxamide], the IC50 in assay [1] was < 100 nM.
For `CN1CCc2cc(-c3cc(C(N)=O)c4ncnc(N[C@H]5CCCNC5)c4n3)nn2CC1=O` [Example 45, (S)-6-(6-methyl-7-oxo-5,6,7,8-tetrahydro-4H-pyrazolo[1,5-d][1,4]diazepin-2-yl)-4-(piperidin-3-ylamino)pyrido[3,2-d]pyrimidine-8-carboxamide], in the assay with HPK1 pSLP76 (Ser376), the concentration for half-maximal inhibition (IC50) was > 1000 nM.
Turning to `Cc1cc(-c2cc(C(N)=O)c3ncnc(N[C@@H]4CNC[C@@H](F)C4)c3n2)sn1` [Example 6, 4-{[(3S,5S)-5-fluoropiperidin-3-yl]amino}-6-(3-methyl-1,2-thiazol-5-yl)pyrido[3,2-d]pyrimidine-8-carboxamide], in assay [1], the IC50 was < 100 nM.
The same measure, in the same setting: the figure for `NCCNc1ncnc2c(C(N)=O)cc(-c3ccc(CN4CCOCC4)cc3)nc12` [Example 23, 4-((2-aminoethyl)amino)-6-(4-(morpholinomethyl)phenyl)pyrido[3,2-d]pyrimidine-8-carboxamide] is < 100 nM.
